What was measured:
Assay in all cases: relative viability (nuclei count vs DMSO), 5 days (fraction); higher = more cells survive
[1] = test system: COR-L23
Summary of the method: (§1)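 Relative viability is defined as nuclei in treated wells over nuclei in vehicle wells. Duplicate plates were run and medians reported. Lung cancer cell lines in 1536-well plates were dosed by pin tool one day after seeding, with one drug or with a fixed anchor-drug dose plus five library-drug doses (not always all listed) in √10 steps, and nuclei were counted after 5 days.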

[2] = test system: NCI-H727
Summary of the method: as §1

[3] = test system: HCC-366
Summary of the method: as §1

[4] = test system: NCI-H2087
Summary of the method: as §1

[5] = test system: HCC-827
Summary of the method: as §1

[6] = test system: NCI-H1993
Summary of the method: as §1

[7] = test system: SK-MES-1
Summary of the method: as §1

[8] = test system: BEN
Summary of the method: as §1

[9] = test system: HCC-44
Summary of the method: as §1

[10] = test system: NCI-H2126
Summary of the method: as §1

[11] = test system: PC-14
Summary of the method: as §1

[12] = test system: CAL-12T
Summary of the method: as §1

[13] = test system: HOP-62
Summary of the method: as §1

[14] = test system: HARA
Summary of the method: as §1

[15] = test system: HCC-15
Summary of the method: as §1

[16] = test system: NCI-H2170
Summary of the method: as §1

[17] = test system: COR-L 105
Summary of the method: as §1

[18] = test system: PC-3 [JPC-3]
Summary of the method: as §1

[19] = test system: LU99A
Summary of the method: as §1

[20] = test system: LXF-289
Summary of the method: as §1

[21] = test system: LCLC-97TM1
Summary of the method: as §1

[22] = test system: LC-2-ad
Summary of the method: as §1

[23] = test system: NCI-H2009
Summary of the method: as §1

SMILES: O=c1[nH]c2ccccc2n1C1CCN(CCCC(c2ccc(F)cc2)c2ccc(F)cc2)CC1 [Pimozide] + C[C@@H](Oc1cc(-c2cnn(C3CCNCC3)c2)cnc1N)c1c(Cl)ccc(F)c1Cl [Crizotinib] (partner 1 µM)
- relative viability ([1]; first compound 0.08 µM): 0.656
- relative viability ([1]; first compound 0.253 µM): 0.606
- relative viability ([1]; first compound 0.8 µM): 0.575
- relative viability ([1]; first compound 2.53 µM): 0.601
- relative viability ([1]; first compound 8 µM): 0.575
- relative viability ([2]; first compound 0.08 µM): 0.958
- relative viability ([2]; first compound 0.253 µM): 0.791
- relative viability ([2]; first compound 0.8 µM): 0.855
- relative viability ([2]; first compound 2.53 µM): 0.765
- relative viability ([2]; first compound 8 µM): 0.756
- relative viability ([3]; first compound 0.08 µM): 0.574
- relative viability ([3]; first compound 0.253 µM): 0.455
- relative viability ([3]; first compound 0.8 µM): 0.448
- relative viability ([3]; first compound 2.53 µM): 0.503
- relative viability ([3]; first compound 8 µM): 0.525
- relative viability ([4]; first compound 0.08 µM): 0.856
- relative viability ([4]; first compound 0.253 µM): 0.721
- relative viability ([4]; first compound 0.8 µM): 0.604
- relative viability ([4]; first compound 2.53 µM): 0.826
- relative viability ([4]; first compound 8 µM): 0.889
- relative viability ([5]; first compound 0.253 µM): 0.887
- relative viability ([5]; first compound 0.8 µM): 0.826
- relative viability ([5]; first compound 2.53 µM): 0.936
- relative viability ([5]; first compound 8 µM): 0.885
- relative viability ([6]; first compound 0.08 µM): 0.818
- relative viability ([6]; first compound 0.253 µM): 0.816
- relative viability ([6]; first compound 0.8 µM): 0.816
- relative viability ([6]; first compound 2.53 µM): 0.859
- relative viability ([6]; first compound 8 µM): 0.898
- relative viability ([7]; first compound 0.08 µM): 0.882
- relative viability ([7]; first compound 0.253 µM): 0.928
- relative viability ([7]; first compound 0.8 µM): 0.957
- relative viability ([7]; first compound 2.53 µM): 1.01
- relative viability ([7]; first compound 8 µM): 0.901
- relative viability ([8]; first compound 0.08 µM): 1.01
- relative viability ([8]; first compound 0.253 µM): 0.913
- relative viability ([8]; first compound 0.8 µM): 0.846
- relative viability ([8]; first compound 2.53 µM): 0.697
- relative viability ([8]; first compound 8 µM): 0.969
- relative viability ([9]; first compound 0.08 µM): 0.73
- relative viability ([9]; first compound 0.253 µM): 0.733
- relative viability ([9]; first compound 0.8 µM): 0.743
- relative viability ([9]; first compound 2.53 µM): 0.829
- relative viability ([9]; first compound 8 µM): 0.75
- relative viability ([10]; first compound 0.08 µM): 1.06
- relative viability ([10]; first compound 0.253 µM): 0.976
- relative viability ([10]; first compound 0.8 µM): 0.976
- relative viability ([10]; first compound 2.53 µM): 1.02
- relative viability ([10]; first compound 8 µM): 1
- relative viability ([11]; first compound 0.253 µM): 0.84
- relative viability ([11]; first compound 0.8 µM): 0.943
- relative viability ([11]; first compound 2.53 µM): 0.934
- relative viability ([11]; first compound 8 µM): 0.978
- relative viability ([12]; first compound 0.08 µM): 0.711
- relative viability ([12]; first compound 0.253 µM): 0.644
- relative viability ([12]; first compound 0.8 µM): 0.557
- relative viability ([12]; first compound 2.53 µM): 0.469
- relative viability ([12]; first compound 8 µM): 0.473
- relative viability ([13]; first compound 0.08 µM): 1.03
- relative viability ([13]; first compound 0.253 µM): 0.859
- relative viability ([13]; first compound 2.53 µM): 0.819
- relative viability ([13]; first compound 8 µM): 0.991
- relative viability ([14]; first compound 0.08 µM): 0.991
- relative viability ([14]; first compound 0.253 µM): 1.07
- relative viability ([14]; first compound 0.8 µM): 1.01
- relative viability ([14]; first compound 2.53 µM): 0.927
- relative viability ([14]; first compound 8 µM): 0.961
- relative viability ([15]; first compound 0.08 µM): 0.835
- relative viability ([15]; first compound 0.253 µM): 0.771
- relative viability ([15]; first compound 0.8 µM): 0.724
- relative viability ([15]; first compound 2.53 µM): 0.761
- relative viability ([15]; first compound 8 µM): 0.797
- relative viability ([16]; first compound 0.08 µM): 1.03
- relative viability ([16]; first compound 0.253 µM): 1.14
- relative viability ([16]; first compound 0.8 µM): 1.06
- relative viability ([16]; first compound 2.53 µM): 1.22
- relative viability ([16]; first compound 8 µM): 1.07
- relative viability ([17]; first compound 0.253 µM): 0.831
- relative viability ([17]; first compound 0.8 µM): 0.691
- relative viability ([17]; first compound 2.53 µM): 0.645
- relative viability ([17]; first compound 8 µM): 0.555
- relative viability ([18]; first compound 0.253 µM): 0.878
- relative viability ([18]; first compound 0.8 µM): 0.91
- relative viability ([18]; first compound 2.53 µM): 0.915
- relative viability ([18]; first compound 8 µM): 0.854
- relative viability ([19]; first compound 0.08 µM): 0.497
- relative viability ([19]; first compound 0.253 µM): 0.521
- relative viability ([19]; first compound 0.8 µM): 0.548
- relative viability ([19]; first compound 2.53 µM): 0.612
- relative viability ([19]; first compound 8 µM): 0.61
- relative viability ([20]; first compound 0.08 µM): 0.791
- relative viability ([20]; first compound 0.253 µM): 0.775
- relative viability ([20]; first compound 0.8 µM): 0.79
- relative viability ([20]; first compound 2.53 µM): 0.774
- relative viability ([20]; first compound 8 µM): 0.709
- relative viability ([21]; first compound 0.08 µM): 0.337
- relative viability ([21]; first compound 0.253 µM): 0.356
- relative viability ([21]; first compound 0.8 µM): 0.296
- relative viability ([21]; first compound 2.53 µM): 0.424
- relative viability ([21]; first compound 8 µM): 0.413
- relative viability ([22]; first compound 0.08 µM): 0.474
- relative viability ([22]; first compound 0.253 µM): 0.441
- relative viability ([22]; first compound 0.8 µM): 0.403
- relative viability ([22]; first compound 2.53 µM): 0.466
- relative viability ([22]; first compound 8 µM): 0.479
- relative viability ([23]; first compound 0.08 µM): 1.02
- relative viability ([23]; first compound 0.253 µM): 0.995
- relative viability ([23]; first compound 0.8 µM): 1.09
- relative viability ([23]; first compound 2.53 µM): 1.01
- relative viability ([23]; first compound 8 µM): 0.889
